From PMC4432228, “Tight regulation of the unfolded protein sensor Ire1 by its intramolecularly antagonizing subdomain” (Journal of Cell Science, 2015)

Test system: MBP–CSSR (core stress-sensing region of yeast Ire1)
Experiment: In vitro competition assay for peptide binding to the CSSR (fluorescence anisotropy of ΔEspP–FAM)
Set-up: species or system Saccharomyces cerevisiae
Conditions: Fig. 6C
Procedure: Fig. 6. Two-hybrid and in vitro interaction of the CSSR with various peptides. (A,B) A yeast two-hybrid analysis was performed using the CSSR and its mutants as prey. The Subregion I 60-amino-acid portion (Sub-I), Segment 4 (Seg4; six tandem repeat), GGGSS (12 tandem repeat), Segments 1–3 (Segs1–3; amino acids 32–61 of yeast Ire1; two tandem repeat), Segments 4–6 (Segs4–6; amino acids 62–91 of yeast Ire1; two tandem repeat), the NUCR of human or mouse PERK (hPERK or mPERK), the Top2 IDR (Top2; two tandem repeat) and the San1 IDR (San1) were used as bait. Tester cell cultures were serially diluted tenfold, spotted on agar plates, incubated for 2–4 days and photographed. WT, wild type. (C) A fluorescently labeled peptide DEspP–FAM (10 µM final concentration) was mixed with MBP–CSSR (5 µM final concentration) and a competitor peptide [Segment (Seg) 2–6] and measured for fluorescence anisotropy. The resulting values from triplicate assays (mean±s.d.) are normalized to that for the no competitor peptide condition.
Next, we performed an in vitro competition assay to monitor the affinity of the Subregion I segments for the CSSR. A recombinant CSSR protein tagged with the maltose-binding protein (MBP–CSSR) was expressed in Escherichia coli and purified with amylose resin ([Kimata et al., 2007]). […]

Substance: Segment 4: Untagged competitor peptide NH2-KKKA-[10 amino acids of Segment 4 of yeast Ire1 Subregion I]-AAKKKK-COOH (H-KKKAIPAPRTTEGLAAKKKK-OH)
- Affinity of capture by the CSSR relative to other Subregion I segments (in vitro competition analysis): higher affinity than for other segments
- Reduction of ΔEspP–FAM fluorescence anisotropy by competitor peptide (reduced association between ΔEspP–FAM and MBP–CSSR) (ΔEspP–FAM 10 µM, MBP–CSSR 5 µM, elution buffer A (50 mM HEPES pH 8.0), 30 min incubation, 25°C, triplicate assays, normalized to no competitor): more effectively than the other segments did
